Data on one molecule can be found in patent US20050113292A1 (priority 2003, published 2005).

Test [1] deals with HIV-1 89.6.
The subject of test [2] is HIV-1 92MW965.26.
The test system of test [3] is NL4-3 (MT-4).
Test [4] relates to T20-resistant virus.
Test [5] deals with HIV-1 pNLHxB.
In test [6] the test system is HIV-1 92UG024.2.
For test [7], the system named is T-20 Resistant Virus.
For test [8], the system named is HIV-1 92HT599.24.
The test system of test [9] is HIV-1 NL4-3.

As usually defined, the IC50 is the concentration at which inhibition is half-maximal. High values mean lower potency, low ones higher potency. As to `CC[C@H](C)[C@H](NC(=O)[C@H](CC(C)C)NC(=O)[C@H](CO)NC(=O)[C@H](Cc1c[nH]cn1)NC(=O)[C@@H](NC(=O)[C@H](CC(C)C)NC(=O)[C@H](CO)NC(=O)[C@@H](NC(=O)[C@H](Cc1ccc(O)cc1)NC(=O)[C@H](CC(N)=O)NC(=O)[C@H](CC(N)=O)NC(=O)[C@@H](NC(=O)[C@H](CCC(=O)O)NC(=O)[C@H](CCCNC(=N)N)NC(=O)[C@H](CC(=O)O)NC(=O)[C@H](Cc1c[nH]c2ccccc12)NC(=O)[C@H](CCC(=O)O)NC(=O)[C@H](CCSC)NC(=O)[C@H](Cc1c[nH]c2ccccc12)NC(=O)[C@@H]1CSC(C(=O)N[C@@H](CCCCNC(=O)CCCCCNC(=O)CCCCCNC(=O)[C@H](CCCCNC(=O)CCCCCNC(=O)CCCCCNC(=O)CCCCCNC(=O)[C@H](CCCCN)NC(=O)C2N[C@H](C(=O)N[C@@H](Cc3c[nH]c4ccccc34)C(=O)N[C@@H](CCSC)C(=O)N[C@@H](CCC(=O)O)C(=O)N[C@@H](Cc3c[nH]c4ccccc34)C(=O)N[C@@H](CC(=O)O)C(=O)N[C@@H](CCCNC(=N)N)C(=O)N[C@@H](CCC(=O)O)C(=O)N[C@H](C(=O)N[C@@H](CC(N)=O)C(=O)N[C@@H](CC(N)=O)C(=O)N[C@@H](Cc3ccc(O)cc3)C(=O)N[C@H](C(=O)N[C@@H](CO)C(=O)N[C@@H](CC(C)C)C(=O)N[C@H](C(=O)N[C@@H](Cc3c[nH]cn3)C(=O)N[C@@H](CO)C(=O)N[C@@H](CC(C)C)C(=O)N[C@H](C(=O)N[C@@H](CCC(=O)O)C(=O)N[C@@H](CCC(=O)O)C(=O)N[C@@H](CO)C(=O)N[C@@H](CCC(N)=O)C(=O)N[C@@H](CC(N)=O)C(=O)N[C@@H](CCC(N)=O)C(=O)N[C@@H](CCC(N)=O)C(=O)N[C@@H](CCC(=O)O)C(=O)N[C@@H](CCCCN)C(=O)N[C@@H](CC(N)=O)C(=O)N[C@@H](CCC(=O)O)C(=O)N[C@@H](CCC(N)=O)C(=O)N[C@@H](CCC(=O)O)C(=O)N[C@@H](CC(C)C)C(=O)N[C@@H](CC(C)C)C(=O)O)[C@@H](C)CC)[C@@H](C)CC)[C@@H](C)O)[C@@H](C)CC)CS2)NC(=O)C2N[C@H](C(=O)N[C@@H](Cc3c[nH]c4ccccc34)C(=O)N[C@@H](CCSC)C(=O)N[C@@H](CCC(=O)O)C(=O)N[C@@H](Cc3c[nH]c4ccccc34)C(=O)N[C@@H](CC(=O)O)C(=O)N[C@@H](CCCNC(=N)N)C(=O)N[C@@H](CCC(=O)O)C(=O)N[C@H](C(=O)N[C@@H](CC(N)=O)C(=O)N[C@@H](CC(N)=O)C(=O)N[C@@H](Cc3ccc(O)cc3)C(=O)N[C@H](C(=O)N[C@@H](CO)C(=O)N[C@@H](CC(C)C)C(=O)N[C@H](C(=O)N[C@@H](Cc3c[nH]cn3)C(=O)N[C@@H](CO)C(=O)N[C@@H](CC(C)C)C(=O)N[C@H](C(=O)N[C@@H](CCC(=O)O)C(=O)N[C@@H](CCC(=O)O)C(=O)N[C@@H](CO)C(=O)N[C@@H](CCC(N)=O)C(=O)N[C@@H](CC(N)=O)C(=O)N[C@@H](CCC(N)=O)C(=O)N[C@@H](CCC(N)=O)C(=O)N[C@@H](CCC(=O)O)C(=O)N[C@@H](CCCCN)C(=O)N[C@@H](CC(N)=O)C(=O)N[C@@H](CCC(=O)O)C(=O)N[C@@H](CCC(N)=O)C(=O)N[C@@H](CCC(=O)O)C(=O)N[C@@H](CC(C)C)C(=O)N[C@@H](CC(C)C)C(=O)O)[C@@H](C)CC)[C@@H](C)CC)[C@@H](C)O)[C@@H](C)CC)CS2)C(N)=O)N1)[C@@H](C)CC)[C@@H](C)O)[C@@H](C)CC)C(=O)N[C@@H](CCC(=O)O)C(=O)N[C@@H](CCC(=O)O)C(=O)N[C@@H](CO)C(=O)N[C@@H](CCC(N)=O)C(=O)N[C@@H](CC(N)=O)C(=O)N[C@@H](CCC(N)=O)C(=O)N[C@@H](CCC(N)=O)C(=O)N[C@@H](CCC(=O)O)C(=O)N[C@@H](CCCCN)C(=O)N[C@@H](CC(N)=O)C(=O)N[C@@H](CCC(=O)O)C(=O)N[C@@H](CCC(N)=O)C(=O)N[C@@H](CCC(=O)O)C(=O)N[C@@H](CC(C)C)C(=O)N[C@@H](CC(C)C)C(=O)O` (stereo partly drawn) [Compound 3α3-C34], the IC50 in test [1] stood at 10.2 nM; in [2], 0.16 nM; in test [3], 1.59 nM; in [4] it was 0.47 nM; in test [5], 0.76 nM; in test [6] it was 0.6 nM. Also, the half-inhibitory concentration (IC50) in [7] came out at 0.34 nM; in [8], 0.25 nM; in test [9], 0.73 nM. In addition, the Ratio in [7] was found to be 0.21.
